Source: US6737383B1, “Herbicidal oxadiazolidines” (priority 1999, dated 2004)

What was measured:
[1] = system: rice; experiment: Test B flood test rice; format: in vivo, Oryza sativa
In short: (§1)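 Plants were grown to the 2-leaf stage before treatment with test chemical, then held in a greenhouse for twelve to sixteen days. Injury was visually rated against untreated controls on a 0–10 scale, where 0 is no effect and 10 is complete control.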

[2] = system: wheat; experiment: Test B pre/postemergence wheat; format: in vivo, Triticum aestivum
In short: (§2)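 Response is a visual 0-to-10 score relative to untreated plants, where 0 means no effect and 10 means complete control, taken twelve to sixteen days after application. Treatments went onto soil at planting and onto foliage of 1- to 4-leaf plants, using a surfactant-containing non-phytotoxic solvent.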

[3] = system: wild oat; experiment: Test B pre/postemergence wild oat; format: in vivo, Avena fatua
In short: as §2

[4] = system: duck salad; experiment: Test B flood test duck salad; format: in vivo, Heteranthera limosa
In short: as §1

[5] = system: soybean; experiment: Test B pre/postemergence soybean; format: in vivo, Glycine max
In short: as §2

[6] = system: velvetleaf; experiment: Test B pre/postemergence velvetleaf; format: in vivo, Abutilon theophrasti
In short: as §2

[7] = system: giant foxtail; experiment: Test B pre/postemergence giant foxtail; format: in vivo, Setaria faberii
In short: as §2

[8] = system: smallflower flatsedge; experiment: Test B flood test smallflower flatsedge; format: in vivo, Cyperus difformis
In short: as §1

[9] = system: sugar beet; experiment: Test B pre/postemergence sugar beet; format: in vivo, Beta vulgaris
In short: as §2

[10] = system: blackgrass; experiment: Test B pre/postemergence blackgrass; format: in vivo, Alopecurus myosuroides
In short: as §2

[11] = system: bamyardgrass; experiment: Test B flood test barnyardgrass; format: in vivo, Echinochloa crus-galli
In short: as §1

[12] = system: purple nutsedge; experiment: Test B pre/postemergence purple nutsedge; format: in vivo, Cyperus rotundus
In short: as §2

[13] = system: pigweed; experiment: Test B pre/postemergence pigweed; format: in vivo, Amaranthus retroflexus
In short: as §2

[14] = system: rape; experiment: Test B pre/postemergence rape; format: in vivo, Brassica napus
In short: as §2

[15] = system: morningglory; experiment: Test B pre/postemergence morningglory; format: in vivo, Ipomoea hederacea
In short: as §2

[16] = system: cocklebur; experiment: Test B pre/postemergence cocklebur; format: in vivo, Xanthium strumarium
In short: as §2

[17] = Postemergence, Rate 62 g/ha, scale 0 to 10, 0 is no effect, 10 is complete control
[18] = Rate 125 g/ha, Postemergence section (flood test species), scale 0 to 10, 0 no effect, 10 complete control
[19] = Rate 500 g/ha, Postemergence section of Table B, 0 to 10 scale (0 no effect, 10 complete control)
[20] = flood test, listed under Postemergence, Rate 250 g/ha, scale 0 to 10, 0 no effect, 10 complete control
[21] = Postemergence, Rate 250 g/ha, scale 0 to 10, 0 no effect, 10 complete control
[22] = Preemergence, Rate 31 g/ha, visual rating, scale 0 to 10 (0 no effect, 10 complete control)
[23] = Preemergence, Rate 62 g/ha, scale 0 to 10, 0 is no effect, 10 is complete control
[24] = Preemergence, Rate 125 g/ha, scale 0 to 10 (0 no effect, 10 complete control)
[25] = Preemergence, Rate 250 g/ha, scale of 0 to 10 where 0 is no effect and 10 is complete control
[26] = Rate 125 g/ha, Postemergence, scale 0 to 10, 0 no effect, 10 complete control
[27] = Rate 31 g/ha, Postemergence, scale 0 to 10

For `COc1ccc(-n2c(=O)on(C(=O)N(c3ccc(F)cc3)C(C)C)c2=O)c(OC)c1` [Compound 33], the “Rice plant response rating” value [1, 17] was 0, the “Rice plant response rating” value [1, 18] was 0 and the “Rice plant response rating” value [1, 19] was 4. For the same compound, the “Rice plant response rating” value [1, 20] was 2, the “Wheat plant response rating” value [2, 17] was 0 and the “Wheat plant response rating” value [2, 21] was 0. The “Wheat plant response rating” value [2, 22] was 0, the “Plant response rating, Wheat” value [2, 23] was 0 and the “Plant response rating, Wheat” value [2, 24] was 0. The “Plant response rating, Wheat” value [2, 25] was 0, the “Wheat plant response rating” value [2, 26] was 0 and the “Wild oats plant response rating” value [3, 17] was 0. The “Wild oats plant response rating” value [3, 21] was 1, the “Wild oats plant response rating” value [3, 22] was 0 and the “Plant response rating, Wild oats” value [3, 24] was 2. For the same compound, the “Plant response rating, Wild oats” value [3, 25] was 2, the “Wild oats plant response rating” value [3, 26] was 0 and the “Ducksalad plant response rating” value [4, 17] was 0. For the same compound, the “Ducksalad plant response rating” value [4, 18] was 0, the “Ducksalad plant response rating” value [4, 19] was 0 and the “Ducksalad plant response rating” value [4, 20] was 0. The “Soybean plant response rating” value [5, 17] was 2, the “Soybean plant response rating” value [5, 21] was 3 and the “Soybean plant response rating” value [5, 22] was 0. For the same compound, the “Plant response rating, Soybean” value [5, 23] was 0, the “Plant response rating, Soybean” value [5, 24] was 0 and the “Plant response rating, Soybean” value [5, 25] was 0. For the same compound, the “Soybean plant response rating” value [5, 26] was 3, the “Velvetleaf plant response rating” value [6, 17] was 0 and the “Velvetleaf plant response rating” value [6, 21] was 2. The “Velvetleaf plant response rating” value [6, 22] was 0, the “Plant response rating, Velvetleaf” value [6, 23] was 0 and the “Plant response rating, Velvetleaf” value [6, 24] was 0. For the same compound, the “Plant response rating, Velvetleaf” value [6, 25] was 0, the “Velvetleaf plant response rating” value [6, 26] was 1 and the “Giant foxtail plant response rating” value [7, 17] was 0. The “Giant foxtail plant response rating” value [7, 21] was 3, the “Giant foxtail plant response rating” value [7, 22] was 3 and the “Plant response rating, Giant foxtail” value [7, 23] was 4. For the same compound, the “Plant response rating, Giant foxtail” value [7, 24] was 6, the “Plant response rating, Giant foxtail” value [7, 25] was 9 and the “Giant foxtail plant response rating” value [7, 27] was 0. For the same compound, the “Giant foxtail plant response rating” value [7, 26] was 1, the “S. Flatsedge plant response rating” value [8, 17] was 0 and the “S. Flatsedge plant response rating” value [8, 18] was 0. For the same compound, the “S. Flatsedge plant response rating” value [8, 20] was 2, the “Sugarbeets plant response rating” value [9, 17] was 0 and the “Sugarbeets plant response rating” value [9, 21] was 6. For the same compound, the “Sugarbeets plant response rating” value [9, 22] was 0, the “Plant response rating, Sugarbeets” value [9, 23] was 0 and the “Plant response rating, Sugarbeets” value [9, 24] was 0. For the same compound, the “Plant response rating, Sugarbeets” value [9, 25] was 0, the “Sugarbeets plant response rating” value [9, 26] was 2 and the “Blackgrass plant response rating” value [10, 17] was 4. For the same compound, the “Blackgrass plant response rating” value [10, 21] was 5, the “Blackgrass plant response rating” value [10, 22] was 0 and the “Plant response rating, Blackgrass” value [10, 23] was 0. The “Plant response rating, Blackgrass” value [10, 24] was 0, the “Plant response rating, Blackgrass” value [10, 25] was 0 and the “Blackgrass plant response rating” value [10, 27] was 3. The “Blackgrass plant response rating” value [10, 26] was 5, the “Barnyardgrass plant response rating” value [11, 17] was 0 and the “Barnyardgrass plant response rating” value [11, 18] was 0. For the same compound, the “Barnyardgrass plant response rating” value [11, 19] was 6, the “Barnyardgrass plant response rating” value [11, 20] was 3 and the “Nutsedge plant response rating” value [12, 17] was 0. For the same compound, the “Nutsedge plant response rating” value [12, 21] was 0, the “Nutsedge plant response rating” value [12, 22] was 0 and the “Plant response rating, Nutsedge” value [12, 23] was 0. For the same compound, the “Plant response rating, Nutsedge” value [12, 24] was 0, the “Plant response rating, Nutsedge” value [12, 25] was 0 and the “Nutsedge plant response rating” value [12, 27] was 0. The “Nutsedge plant response rating” value [12, 26] was 0, the “Redroot pigweed plant response rating” value [13, 17] was 0 and the “Redroot pigweed plant response rating” value [13, 21] was 3. For the same compound, the “Redroot pigweed plant response rating” value [13, 22] was 0, the “Plant response rating, Redroot pigweed” value [13, 23] was 0 and the “Plant response rating, Redroot pigweed” value [13, 24] was 0. For the same compound, the “Plant response rating, Redroot pigweed” value [13, 25] was 0, the “Redroot pigweed plant response rating” value [13, 27] was 0 and the “Redroot pigweed plant response rating” value [13, 26] was 2. The “Rape plant response rating” value [14, 17] was 0, the “Rape plant response rating” value [14, 21] was 3 and the “Rape plant response rating” value [14, 22] was 0. For the same compound, the “Plant response rating, Rape” value [14, 23] was 0, the “Plant response rating, Rape” value [14, 24] was 0 and the “Plant response rating, Rape” value [14, 25] was 0. For the same compound, the “Rape plant response rating” value [14, 27] was 0, the “Rape plant response rating” value [14, 26] was 0 and the “Morningglory plant response rating” value [15, 17] was 3. For the same compound, the “Morningglory plant response rating” value [15, 21] was 9, the “Morningglory plant response rating” value [15, 22] was 0 and the “Plant response rating, Morningglory” value [15, 23] was 0. The “Plant response rating, Morningglory” value [15, 24] was 0, the “Plant response rating, Morningglory” value [15, 25] was 1 and the “Morningglory plant response rating” value [15, 27] was 3. For the same compound, the “Morningglory plant response rating” value [15, 26] was 8, the “Cocklebur plant response rating” value [16, 17] was 0 and the “Cocklebur plant response rating” value [16, 21] was 6. The “Cocklebur plant response rating” value [16, 22] was 0, the “Plant response rating, Cocklebur” value [16, 23] was 0 and the “Plant response rating, Cocklebur” value [16, 24] was 0. The “Plant response rating, Cocklebur” value [16, 25] was 0, the “Cocklebur plant response rating” value [16, 27] was 0 and the “Cocklebur plant response rating” value [16, 26] was 0.
